# Data as given in paper PMC8464939, “Epicatechin Gallate as Xanthine Oxidase Inhibitor: Inhibitory Kinetics, Binding Characteristics, Synergistic Inhibition, and Action Mechanism” (Foods, 2021).
# Where two headings read alike, the source gives them in different places.
# Legend:
# [1] = molecular target: T1, xanthine oxidase (XO) (Bos taurus, UniProt P80457); assay: XO activity assay (uric acid formation, absorbance at 293 nm); type: biochemical, bovine
# [2] = molecular target: T1, xanthine oxidase (XO); assay: Kinetic analysis of enzyme-catalyzed reaction (Lineweaver–Burk); type: biochemical, bovine
# Description: The same determination method of enzyme activity was used to conduct the inhibition kinetics analysis of ECG on XO. In the presence of a series of different concentrations of ECG, the concentration of XO or xanthine was changed to determine the catalytic rate, and then the inhibition type was ascertained by the Lineweaver-Burk plots in double reciprocal form. […] Km, Ki, and α are on behalf of the Michaelis-Menten constant, dissociation constant, and apparent coefficient, respectively.
# [3] = DPPH radical scavenging activity assay; conditions: ECG 15 μM
# Experimental: The DPPH free radical scavenging activity of ECG was tested according to Aalim et al. with slight modification. DPPH was dissolved in ethanol, and then different concentrations of ECG were added to prepare a series of samples. The mixed solutions were protected from light and reacted for 30 min. The absorbance of the samples at 517 nm was determined by an enzyme-labeled instrument (Varioskan LUX, Thermo Fisher Scientific, Waltham, MA, USA). An equal volume of ethanol was used as a control. The free radical scavenging activity of ECG was assessed by the change of percentage in absorbance.
# [4] = O2− radical scavenging activity assay (PMS–NADH system, NBT); conditions: ECG 45.0 μM
# Experimental: NBT could be reduced to blue formazan by O2^− radical produced by the PMS–NADH system; thus, this method was used to evaluate the O2^− radical scavenging activity of ECG [33]. The reaction solutions were prepared by mixing NBT (55.0 μM), NADH (0.27 mM), and different concentrations of ECG, and then 0.2 mL PMS (0.155 mM) was added to initiate the reaction. After the samples were incubated for 15 min, the absorbance at 560 nm was measured. Ethanol was used instead of ECG as the blank group, and the values of decreasing percentage in absorbance were calculated to analyze the scavenging activity of ECG.
# [5] = molecular target: T1, xanthine oxidase (XO); assay: Inhibition of O2− radical generated by XO (NBT); type: biochemical, bovine; conditions: XO 0.7 μM
# Experimental: The O2^− radicals generated during the catalytic process of XO could also be used to assess the antioxidant activity of ECG. The XO (0.70 μM) and different concentrations of ECG were mixed in Tris–HCl buffer and incubated at 37 °C for 30 min. Then, NBT (55.0 μM) and xanthine were added to the samples, respectively, and the absorbance of the mixture at 560 nm was recorded. A small amount of Triton X−100 (0.2%, v/v) was added for solubilization and the control group was equal volume ethanol.
# [6] = molecular target: T1, xanthine oxidase (XO); assay: Fluorescence titration experiments (quenching, binding, thermodynamics, 3D fluorescence); parameters: species or system bovine
# Experimental: At three experimental temperatures (25, 31, and 37 °C), XO (1.0 μM) diluted in the Tris–HCl solution was placed in a 1.0 cm cuvette, and then ECG (0–30.0 μM) was added into XO solution successively to conduct the fluorescence titration experiments. After each addition, the fluorescence spectra of the mixed solutions within 300–500 nm were scanned at an excitation wavelength of 280 nm using a fluorescence photometer (F–7000, Hitachi, Japan). The width of the excitation and emission slit was 2.5 nm, respectively. Similarly, the synchronous fluorescence spectra of XO titrated by ECG were measured by setting the difference between excitation and emission wavelength (Δλem) to 15 and 60 nm, respectively. The free XO solution and a mixed sample of XO and ECG were prepared, and then the three-dimensional (3D) fluorescence spectra of the samples were determined; the scanning ranges of both excitation and emission wavelength were 200–600 nm. All fluorescence data were corrected to subtract the internal filtering effect by the following equation [34]:(4) Fc=Fme^(A1+A2)/2 where Fc and Fm represent the […] fluorescence intensity values, respectively; A1 and A2 are the absorbances of ECG at the excitation and emission wavelengths, respectively.
# The changes of fluorescence spectra can reflect the binding characteristics between inhibitor and enzyme. […] The specific quenching mechanism of ECG on XO was determined by the relationship between quenching constant (KSV) and temperature, and the values of KSV and Kq (the quenching rate constant) were calculated by the well-known Stern–Volmer equation [44]. (6) F0/F=1+KSVQ=1+Kqτ0Q where F and F0 represent the fluorescence intensity values of XO with and without ECG, respectively; Q is the concentration of ECG; the value of the average fluorescence lifetime of fluorophore for biomacromolecules (τ0) is 10^−8 s. […] Furthermore, the binding constant (Ka) and the number of binding sites (n) were calculated through the following formula:(7) logF0−F/F=nlogKa−nlog1/Qt−(F0−F)Pt/F0 where [Qt] and [Pt] represent the concentrations of ECG and XO, respectively. […] The n values were close to 1, reflecting that XO had only one class of binding sites for ECG, which was consistent with the conclusions of enzyme kinetics analysis.
# The values of thermodynamic parameters of the binding process between ECG and XO, such as entropy change (ΔS°), enthalpy change (ΔH°), and free energy change (ΔG°), were obtained by the van ‘t Hoff equation:
# (9) ΔG=ΔH°−TΔS° where R is the gas constant (8.314 J mol^−1 K^−1), and T is the temperatures of fluorescence titration experiments (25, 31, and 37 °C). […] A similar study reported that the formation of the ECG–α-amylase complex was mainly driven by van der Waals and hydrogen bonds.
# [7] = molecular target: T1, xanthine oxidase (XO); assay: CD spectra: secondary structure of XO; parameters: species or system bovine
# Experimental: The CD spectrometer (Bio−Logic MOS 450, Claix, France) was used to determine the CD spectra to analyze the effects of ECG on the secondary structure of XO. The free XO (1.0 μM) and its mixed solutions with different molar ratios ([ECG]/[XO], 0:1, 10:1, 20:1 and 40:1) were prepared, and then the CD spectra of the samples in the range of 190−250 nm were measured in a nitrogen stream. The specific secondary structure contents were analyzed by our previous study.
# [8] = molecular target: T1, xanthine oxidase (XO); assay: Fluorescence microscopy imaging of XO; parameters: species or system bovine; conditions: XO 1.0 μM; ECG 40.0 μM
# Experimental: The free XO solution and the mixture of ECG and XO were prepared and incubated for 1h at room temperature. The appropriate amount of samples was placed on a microscope slide, and then the structural changes of XO induced by ECG were observed through a fluorescent inverted microscope with an excitation light of FBW (IX73, Olympus, Japan).
# [9] = system: XO; conditions: cited from earlier work
# [10] = system: polyphenoloxidase; parameters: method as in earlier work; conditions: ref 41 (Sae-Leaw et al.); cited from earlier work
# [11] = read-out: IC50 for inhibiting XO activity
# [12] = previous study of the authors, read-out: IC50 for inhibiting XO activity
# T1 sequence (P80457 whole entry): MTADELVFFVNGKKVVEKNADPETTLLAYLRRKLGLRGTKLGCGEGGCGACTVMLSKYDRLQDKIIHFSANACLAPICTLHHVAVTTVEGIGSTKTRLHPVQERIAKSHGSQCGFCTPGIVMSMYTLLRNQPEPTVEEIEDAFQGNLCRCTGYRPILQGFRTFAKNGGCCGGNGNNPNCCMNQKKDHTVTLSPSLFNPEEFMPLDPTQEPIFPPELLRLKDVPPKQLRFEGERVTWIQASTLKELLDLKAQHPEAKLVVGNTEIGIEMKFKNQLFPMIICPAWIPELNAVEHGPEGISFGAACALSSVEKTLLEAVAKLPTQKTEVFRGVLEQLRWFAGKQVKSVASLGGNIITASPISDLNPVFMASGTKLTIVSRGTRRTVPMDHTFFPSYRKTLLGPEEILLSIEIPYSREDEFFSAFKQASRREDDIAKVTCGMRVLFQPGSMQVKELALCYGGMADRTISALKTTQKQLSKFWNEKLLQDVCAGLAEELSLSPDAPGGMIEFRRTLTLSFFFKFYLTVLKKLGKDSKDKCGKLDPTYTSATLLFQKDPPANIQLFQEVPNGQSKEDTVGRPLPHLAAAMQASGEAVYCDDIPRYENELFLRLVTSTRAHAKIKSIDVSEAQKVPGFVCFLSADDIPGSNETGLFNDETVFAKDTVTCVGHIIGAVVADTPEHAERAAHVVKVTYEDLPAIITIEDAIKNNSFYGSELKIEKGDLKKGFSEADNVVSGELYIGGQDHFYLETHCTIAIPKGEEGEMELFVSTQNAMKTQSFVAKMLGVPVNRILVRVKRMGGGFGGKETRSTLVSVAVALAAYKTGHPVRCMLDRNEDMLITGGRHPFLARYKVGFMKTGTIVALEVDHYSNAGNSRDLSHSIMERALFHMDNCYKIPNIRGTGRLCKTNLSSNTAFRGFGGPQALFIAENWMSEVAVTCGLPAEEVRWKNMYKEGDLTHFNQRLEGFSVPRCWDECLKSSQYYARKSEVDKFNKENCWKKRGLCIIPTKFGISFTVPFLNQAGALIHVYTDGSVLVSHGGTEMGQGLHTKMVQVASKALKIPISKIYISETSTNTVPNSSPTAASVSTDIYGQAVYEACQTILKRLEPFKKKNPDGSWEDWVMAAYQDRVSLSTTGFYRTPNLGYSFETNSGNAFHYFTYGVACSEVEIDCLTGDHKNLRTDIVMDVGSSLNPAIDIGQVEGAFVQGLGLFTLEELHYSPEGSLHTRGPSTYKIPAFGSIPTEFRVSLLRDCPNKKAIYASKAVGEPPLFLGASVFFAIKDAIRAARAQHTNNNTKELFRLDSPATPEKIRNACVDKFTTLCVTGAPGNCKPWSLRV
smiles,measurement,setting,value
"O=C(O[C@@H]1Cc2c(O)cc(O)cc2O[C@@H]1c1ccc(O)c(O)c1)c1cc(O)c(O)c(O)c1 [ECG, Epicatechin gallate]",activity of XO at high ECG concentration,[1]; ECG 300 μM,almost completely inhibited
same,IC50,"[1]; pH 7.4, XO 0.075 μM, xanthine 50.0 μM, read-out: IC50 for inhibiting XO activity",19.3 ± 0.45 µM
same,inhibition type,[2]; Lineweaver–Burk plots,mixed inhibitor
same,αKi,[2]; XO−xanthine complex,82.4 ± 0.70 µM
same,Ki,"[2]; dissociation constant, free XO",5.27 ± 0.24 µM
same,reversibility of inhibition,[2]; plots of ν vs. [XO],reversibly inhibited
same,DPPH radical scavenged,[3],90%
same,scavenging rate of O2− radical generated by PMS–NADH system,[4],55.64%
same,IC50,[5]; read-out: dose at which relative inhibition rate of production of O2− radical reached 50%,18.5 µM
same,relative inhibition rate of generation of O2− radical from XO catalysis (final plateau),"[5]; xanthine 0.1, 0.2, 0.5 mM",90%
same,n values,"[6]; 25, 31 and 37 °C",~1
same,Kq (quenching rate constant),"[6]; 25, 31 and 37 °C, compared with maximum scattering collision rate constant",> 2e+10 M⁻¹ s⁻¹
same,Kd,"[6]; 25, 31 and 37 °C, read-out: binding constant Ka, magnitude",~100 µM
same,Ksv,[6]; 298 K,1.76 ± 0.02 ×10^4 L mol^−1
same,n (number of binding sites),[6]; 298 K,0.91 ± 0.01
same,ΔG°,[6]; 298 K,-5.813 ± 0.0956 kcal/mol
same,Kd,"[6]; 298 K, read-out: Ka (binding constant) (converted)",54.9 µM
same,Ksv,[6]; 304 K,1.32 ± 0.03 ×10^4 L mol^−1
same,n (number of binding sites),[6]; 304 K,0.95 ± 0.02
same,ΔG°,[6]; 304 K,-5.81 ± 0.0837 kcal/mol
same,Kd,"[6]; 304 K, read-out: Ka (binding constant) (converted)",66.2 µM
same,Ksv,[6]; 310 K,1.15 ± 0.01 ×10^4 L mol^−1
same,n (number of binding sites),[6]; 310 K,0.87 ± 0.02
same,ΔG°,[6]; 310 K,-5.805 ± 0.0669 kcal/mol
same,Kd,"[6]; 310 K, read-out: Ka (binding constant) (converted)",81.3 µM
same,decrease of 3D fluorescence intensity of XO peak 1 (λex/λem = 280/340 nm),"[6]; XO 1.0 μM, ECG 15.0 μM",34.36%
same,decrease of 3D fluorescence intensity of XO peak 2 (λex/λem = 230/335 nm),"[6]; XO 1.0 μM, ECG 15.0 μM",47.59%
same,ΔH°,"[6]; van 't Hoff, 298–310 K",-5.987 ± 0.0478 kcal/mol
same,ΔS°,"[6]; van 't Hoff, 298–310 K",−2.44 ± 0.07 J mol^−1 K^−1
same,Random Coil content of XO,[7]; [ECG]:[XO] 10:1,25.12 ± 0.69%
same,α-Helix content of XO,[7]; [ECG]:[XO] 10:1,10.83 ± 0.51%
same,β-Sheet content of XO,[7]; [ECG]:[XO] 10:1,42.51 ± 0.41%
same,β-Turn content of XO,[7]; [ECG]:[XO] 10:1,21.65 ± 0.94%
same,Random Coil content of XO,[7]; [ECG]:[XO] 20:1,24.03 ± 0.31%
same,α-Helix content of XO,[7]; [ECG]:[XO] 20:1,10.96 ± 0.62%
same,β-Sheet content of XO,[7]; [ECG]:[XO] 20:1,43.41 ± 0.74%
same,β-Turn content of XO,[7]; [ECG]:[XO] 20:1,21.59 ± 0.13%
same,Random Coil content of XO,[7]; [ECG]:[XO] 40:1,22.51 ± 0.24%
same,α-Helix content of XO,[7]; [ECG]:[XO] 40:1,11.83 ± 0.93%
same,β-Sheet content of XO,[7]; [ECG]:[XO] 40:1,45.02 ± 0.22%
same,β-Turn content of XO,[7]; [ECG]:[XO] 40:1,21.39 ± 0.25%
same,average area of green bright spots of XO with ECG,[8],172.31 μm^2
same,IC50,"[9]; ref 12 (Yuan et al.), read-out: IC50 inhibiting XO",0.26 µM
same,inhibition type on polyphenoloxidase,[10],mixed inhibitory effect
O=C(O)/C=C/c1ccc(O)c(O)c1 [caffeic acid],IC50,[9]; [11],7160 µM
O=C(/C=C/c1ccc(O)c(O)c1)O[C@@H]1C[C@](O)(C(=O)O)C[C@@H](O)[C@H]1O [chlorogenic acid],IC50,[9]; [11],6490 µM
O=c1c(O)c(-c2ccc(O)cc2)oc2cc(O)cc(O)c12 [kaempferol],inhibition manner on XO,[9]; previous study of the authors,reversibly inhibited XO activity in a competitive manner
O=c1c(O)c(-c2cc(O)c(O)c(O)c2)oc2cc(O)cc(O)c12 [myricetin],IC50,[9]; [12],8.66 µM
O=c1c(O)c(-c2ccc(O)c(O)c2)oc2cc(O)cc(O)c12 [quercetin],IC50,[9]; [12],7.23 µM
